{"source": "ChEMBL document CHEMBL3784926", "about": "“Concise total synthesis of water soluble metatacarboline A, C, D, E and F and its anticancer activity” (Eur J Med Chem, 2016)", "key": {"C6 [1]": {"test_system": "C6", "assay": "Antiproliferative activity against rat C6 cells assessed as cell viability after 24 hrs by MTT assay", "assay_type": "functional, cell-based", "conditions": "for IC50: C6, 24 h"}, "[2]": {"assay": "Solubility of the compound in water at 0.01 g after 5 mins", "assay_type": "physicochemical"}, "C6 [3]": {"test_system": "C6", "assay": "Cell cycle arrest in rat C6 cells assessed as accumulation at sub G0/G1 phase at 100 uM after 24 hrs by propidium iodide staining based flow cytometric analysis (reference value: 0.6 %)", "assay_type": "functional"}, "C6 [4]": {"test_system": "C6", "assay": "Cell cycle arrest in rat C6 cells assessed as accumulation at sub G0/G1 phase at 200 uM after 24 hrs by propidium iodide staining based flow cytometric analysis (reference value: 0.6 %)", "assay_type": "functional"}, "C6 [5]": {"test_system": "C6", "assay": "Cell cycle arrest in rat C6 cells assessed as accumulation at sub G0/G1 phase at 400 uM after 24 hrs by propidium iodide staining based flow cytometric analysis (reference value: 0.6 %)", "assay_type": "functional"}, "C6 [6]": {"test_system": "C6", "assay": "Induction of apoptosis in rat C6 cells assessed as DNA fragmentation at 300 uM after 24 hrs by TUNEL assay relative to control", "assay_type": "functional, cell-based"}, "C6 [7]": {"test_system": "C6", "assay": "Induction of apoptosis in rat C6 cells assessed as decrease in Bcl2 expression at 100 to 600 uM after 24 hrs by Western blot analysis", "assay_type": "functional, cell-based"}, "C6 [8]": {"test_system": "C6", "assay": "Induction of apoptosis in rat C6 cells assessed as decrease in Bclxl expression at 100 to 600 uM after 24 hrs by Western blot analysis", "assay_type": "functional, cell-based"}, "C6 [9]": {"test_system": "C6", "assay": "Induction of apoptosis in rat C6 cells assessed as decrease in pro-caspase 8 expression at 100 to 600 uM after 24 hrs by Western blot analysis", "assay_type": "functional, cell-based"}, "C6 [10]": {"test_system": "C6", "assay": "Induction of apoptosis in rat C6 cells assessed as cleaved caspase 3 at 100 to 600 uM after 24 hrs by Western blot analysis", "assay_type": "functional, cell-based"}, "C6 [11]": {"test_system": "C6", "assay": "Induction of apoptosis in rat C6 cells assessed as PARP cleavage at 100 to 600 uM after 24 hrs by Western blot analysis", "assay_type": "functional, cell-based"}, "C6 [12]": {"test_system": "C6", "assay": "Induction of apoptosis in rat C6 cells assessed as upregulation of p53 expression at 100 to 600 uM after 24 hrs by Western blot analysis", "assay_type": "functional, cell-based"}, "C6 [13]": {"test_system": "C6", "assay": "Antiproliferative activity against rat C6 cells assessed as inhibition of colony forming ability at 40 uM after 7 days by methylene blue staining; values are per cent of control", "conditions": "C6, 168 h"}, "C6 [14]": {"test_system": "C6", "assay": "Antiproliferative activity against rat C6 cells assessed as inhibition of colony forming ability at 120 uM after 7 days by methylene blue staining; values are per cent of control", "conditions": "C6, 168 h"}, "C6 [15]": {"test_system": "C6", "assay": "Antiproliferative activity against rat C6 cells assessed as inhibition of colony forming ability at 200 uM after 7 days by methylene blue staining; values are per cent of control", "conditions": "C6, 168 h"}, "C6 [16]": {"test_system": "C6", "assay": "Antiproliferative activity against rat C6 cells assessed as inhibition of colony forming ability at 400 uM after 7 days by methylene blue staining; values are per cent of control", "conditions": "C6, 168 h"}, "C6 [17]": {"test_system": "C6", "assay": "Antiproliferative activity against rat C6 cells assessed as inhibition of colony forming ability at 800 uM after 7 days by methylene blue staining; values are per cent of control", "conditions": "C6, 168 h"}, "[18]": {"assay": "Solubility of the compound in water after 5 mins", "assay_type": "physicochemical"}, "C6 [19]": {"test_system": "C6", "assay": "Cell cycle arrest in rat C6 cells assessed as accumulation at G2/M phase at 40 uM after 24 hrs by propidium iodide staining based flow cytometric analysis (reference value: 20.2%)", "assay_type": "functional"}, "C6 [20]": {"test_system": "C6", "assay": "Cell cycle arrest in rat C6 cells assessed as accumulation at G2/M phase at 120 uM after 24 hrs by propidium iodide staining based flow cytometric analysis (reference value: 20.2%)", "assay_type": "functional"}, "C6 [21]": {"test_system": "C6", "assay": "Cell cycle arrest in rat C6 cells assessed as accumulation at G2/M phase at 200 uM after 24 hrs by propidium iodide staining based flow cytometric analysis (reference value: 20.2%)", "assay_type": "functional"}, "C6 [22]": {"test_system": "C6", "assay": "Cell cycle arrest in rat C6 cells assessed as accumulation at G2/M phase at 400 uM after 24 hrs by propidium iodide staining based flow cytometric analysis (reference value: 20.2%)", "assay_type": "functional"}, "C6 [23]": {"test_system": "C6", "assay": "Antiproliferative activity against rat C6 cells assessed as inhibition of colony forming ability at 600 uM after 7 days by methylene blue staining; values are per cent of control", "conditions": "C6, 168 h"}}, "note": "Active and inactive are the calls of the source. No cut-off for these calls is given here."}
{"smiles": "C[C@H](NC(=O)c1cc2c([nH]c3ccccc32)c(CCC(=O)N2CCC[C@H]2C(=O)O)n1)C(=O)O", "values": [{"measurement": "Activity", "setting": "C6 [1]", "value": "Dose-dependent effect"}, {"measurement": "solubility", "setting": "[2]", "value": "soluble"}]}
{"smiles": "O=C(N[C@@H](CO)C(=O)O)c1cc2c([nH]c3ccccc32)c(CCC(=O)N2CCC[C@H]2C(=O)O)n1", "values": [{"measurement": "Activity", "setting": "C6 [1]", "value": "Dose-dependent effect"}, {"measurement": "solubility", "setting": "[2]", "value": "soluble"}]}
{"smiles": "C[C@H](O)[C@H](NC(=O)c1cc2c([nH]c3ccccc32)c(CCC(=O)N2CCC[C@H]2C(=O)O)n1)C(=O)O", "values": [{"measurement": "Activity", "setting": "C6 [1]", "value": "Dose-dependent effect"}, {"measurement": "IC50", "setting": "C6 [1]", "value": 150, "unit": "µM"}, {"measurement": "Activity", "setting": "C6 [3]", "value": 4.7, "unit": "%"}, {"measurement": "Activity", "setting": "C6 [4]", "value": 43.7, "unit": "%"}, {"measurement": "Activity", "setting": "C6 [5]", "value": 95.1, "unit": "%"}, {"measurement": "Activity", "setting": "C6 [6]", "value": "Active"}, {"measurement": "Activity", "setting": "C6 [7]", "value": "Active"}, {"measurement": "Activity", "setting": "C6 [8]", "value": "Active"}, {"measurement": "Activity", "setting": "C6 [9]", "value": "Active"}, {"measurement": "Activity", "setting": "C6 [10]", "value": "Active"}, {"measurement": "Activity", "setting": "C6 [11]", "value": "Active"}, {"measurement": "Activity", "setting": "C6 [12]", "value": "Active"}, {"measurement": "solubility", "setting": "[2]", "value": "soluble"}, {"measurement": "colony formation (% of control) at 40 µM", "setting": "C6 [13]", "value": 85, "unit": "%"}, {"measurement": "colony formation (% of control) at 120 µM", "setting": "C6 [14]", "value": 75, "unit": "%"}, {"measurement": "colony formation (% of control) at 200 µM", "setting": "C6 [15]", "value": 45, "unit": "%"}, {"measurement": "colony formation (% of control) at 400 µM", "setting": "C6 [16]", "value": 25, "unit": "%"}, {"measurement": "colony formation (% of control) at 800 µM", "setting": "C6 [17]", "value": 5, "unit": "%"}]}
{"smiles": "O=C(O)c1cc2c([nH]c3ccccc32)c(CCC(=O)N2CCC[C@H]2C(=O)O)n1", "values": [{"measurement": "Activity", "setting": "C6 [1]", "value": "Dose-dependent effect"}, {"measurement": "solubility at 5 min", "setting": "[18]", "value": 10000, "unit": "µg/mL"}]}
{"smiles": "CC(C)[C@H](NC(=O)c1cc2c([nH]c3ccccc32)c(CCC(=O)N2CCC[C@H]2C(=O)O)n1)C(=O)O", "values": [{"measurement": "Activity", "setting": "C6 [1]", "value": "Dose-dependent effect"}, {"measurement": "IC50", "setting": "C6 [1]", "value": 250, "unit": "µM"}, {"measurement": "Activity", "setting": "C6 [19]", "value": 24.4, "unit": "%"}, {"measurement": "Activity", "setting": "C6 [20]", "value": 22.8, "unit": "%"}, {"measurement": "Activity", "setting": "C6 [21]", "value": 18.3, "unit": "%"}, {"measurement": "Activity", "setting": "C6 [22]", "value": 23.9, "unit": "%"}, {"measurement": "solubility", "setting": "[2]", "value": "soluble"}, {"measurement": "colony formation (% of control) at 200 µM", "setting": "C6 [15]", "value": 55, "unit": "%"}, {"measurement": "colony formation (% of control) at 400 µM", "setting": "C6 [16]", "value": 35, "unit": "%"}, {"measurement": "colony formation (% of control) at 600 µM", "setting": "C6 [23]", "value": 15, "unit": "%"}]}
